Measured values published in patent publication US9321728B2, “Beta-alanine derivatives, pharmaceutically acceptable salts thereof, and pharmaceutical composition comprising same as active ingredient” (KOREA RESEARCH INSTITUTE OF CHEMICAL TECHNOLOGY, priority 2012, dated 2016).

Biological target: human DGAT1 (Homo sapiens (Human), UniProt O75907)
Experiment: Human DGAT1 enzyme inhibition test (phospholipid FlashPlate, [14C]decanoyl-CoA)
Assay type: biochemical
Conditions: for IC50: lysate of Hep3B cells over-expressing human DGAT1 (5 μg/well), didecanoyl glycerol and [14C]decanoyl-CoA substrates; for in vitro inhibition activity with respect to DGAT1: verbal summary of Table 1
Description: The cells were treated with 200 μg/ml G-418(Sigma) once every three days for 4 weeks to over-express the human DGAT1, thereby obtaining a stabilized cell line. The over-expressed cells were put into a homogenization buffer [250 mM sucrose, 10 mM Tris-HCl (pH 7.4), 1 mM EDTA] and lysed by a homogenization apparatus. Then, centrifugation was performed with 600×g for 15 minutes to remove cell residue, and the obtained cells were used for an enzyme inhibition test. Human DGAT-1 and mouse DGAT activity was determined as follows: Assay buffer [20 mM HEPES (pH 7.4), 100 mM MgCl2, 0.04% BSA] containing 500 μM of enzyme substrate (didecanoyl glycerol) and 7.5 μM radiolabeled acyl-CoA substrate ([^14C]decanoyl-CoA) was added to each well of a phospholipid FlashPlate (PerkinElmer Life Sciences). A small aliquot of lysate (5 μg/well) or mouse liver microsome (0.1 mg/well) was added to start the reaction, which was allowed to proceed in a 20° C. bath for 1 hour. and maintained overnight at room temperature. Next day, measurement was performed by Wallac 1450 Microbeta Trilux Liquid Scintillation Counter and Luminometer (PerkinElmer Life Science). […] A calculation method of inhibition degree (%) is as follows.

Sequence of human DGAT1 (O75907 whole entry): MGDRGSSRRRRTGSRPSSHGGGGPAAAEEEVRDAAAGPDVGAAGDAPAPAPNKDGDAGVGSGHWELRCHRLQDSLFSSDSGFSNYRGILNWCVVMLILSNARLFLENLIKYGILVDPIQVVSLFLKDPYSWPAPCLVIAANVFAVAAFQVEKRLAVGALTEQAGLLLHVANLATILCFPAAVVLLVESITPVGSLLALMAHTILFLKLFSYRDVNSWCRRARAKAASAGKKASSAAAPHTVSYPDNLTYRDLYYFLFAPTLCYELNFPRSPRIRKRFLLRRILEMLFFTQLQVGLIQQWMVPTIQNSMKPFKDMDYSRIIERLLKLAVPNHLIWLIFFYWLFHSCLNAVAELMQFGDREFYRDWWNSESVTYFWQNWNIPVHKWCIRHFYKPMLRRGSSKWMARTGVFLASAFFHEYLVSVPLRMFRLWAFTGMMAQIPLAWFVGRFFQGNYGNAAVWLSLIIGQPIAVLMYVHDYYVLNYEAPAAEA

| IC50 | in vitro inhibition activity with respect to DGAT1 | Structure (SMILES) |
| --- | --- | --- |
| < 50 nM | good to excellent | O=C(O)C[C@H]1CC[C@H](c2ccc(NC(=O)CCNC(=O)c3nc(-c4c(Cl)cccc4Cl)oc3C(F)(F)F)cc2)CC1 [Compound 68, trans-{4-[4-(3-{[2-(2,6-dichlorophenyl)-5-trifluoromethyloxazole-4-carbonyl]amino}propionylamino)phenyl]cyclohexyl}acetic acid] |
| < 50 nM | good to excellent | O=C(O)C[C@H]1CC[C@H](c2ccc(NC(=O)CCNC(=O)c3nc(-c4ccccc4C(F)(F)F)oc3C(F)(F)F)cc2)CC1 [Compound 66, trans-{4-[4-(3-{[5-trifluoromethyl-2-(2-trifluoromethylphenyl)oxazole-4-carbonyl]amino}propionylamino)phenyl]cyclohexyl}acetic acid] |

More lines, now with the values behind:

| Structure (SMILES) | IC50 | in vitro inhibition activity with respect to DGAT1 |
| --- | --- | --- |
| O=C(O)C[C@H]1CC[C@H](c2ccc(NC(=O)CCNC(=O)c3oc(-c4ccccc4)nc3C(F)(F)F)cc2)CC1 [Compound 15, trans-[4-(4-{3-[(2-phenyl-4-trifluoromethyloxazole-5-carbonyl)amino]propionylamino}phenyl)cyclohexyl]acetic acid] | < 100 nM | – |
| CCOc1ccc(C(=O)NCCC(=O)Nc2ccc([C@H]3CC[C@H](CC(=O)O)CC3)cc2)cc1 [Compound 4, trans-(4-{4-[3-(4-ethoxybenzoylamino)propionylamino]phenyl}cyclohexyl)acetic acid] | < 50 nM | good to excellent |
| O=C(O)C[C@H]1CC[C@H](c2ccc(NC(=O)CCNC(=O)c3nc(-c4ccc(Br)cc4)oc3C(F)(F)F)cc2)CC1 [Compound 27, trans-{4-[4-(3-{[2-(4-bromophenyl)-5-trifluoromethyloxazole-4-carbonyl]amino}propionylamino)phenyl]cyclohexyl}acetic acid] | < 100 nM | – |
| O=C(O)C[C@H]1CC[C@H](c2ccc(NC(=O)CCNC(=O)c3nc(-c4ccc(F)cc4)oc3C(F)(F)F)cc2)CC1 [Compound 56, trans-{4-[4-(3-{[2-(4-fluorophenyl)-5-trifluoromethyloxazole-4-carbonyl]amino}propionylamino)phenyl]cyclohexyl}acetic acid] | < 500 nM | – |
